How the values were obtained:
[1] = target: Voltage-dependent L-type calcium channel subunit alpha-1C (Homo sapiens, UniProt Q13936); experiment: Selectivity interaction (Panel of non-epigenetic targets (kinases, GPCRs, ion channels, and transporters, Eurofins) ) EUB0000271b CACNA1C; settings: at 1 µM
[2] = target: Death-associated protein kinase 1 (Homo sapiens, UniProt P53355); settings: at 10 µM
[3] = target: D(3) dopamine receptor (Homo sapiens, UniProt P35462); experiment: Selectivity interaction (Eurofins CEREP Diversity Profile (receptors and ion channels)) EUB0000279b DRD3; settings: at 10 µM
[4] = target: T1, Phosphatidylinositol 5-phosphate 4-kinase type-2 gamma (Homo sapiens) (UniProt Q8TBX8); experiment: Selectivity interaction (KinomeScan (DiscoverX)) EUB0000607a PIP4K2C; settings: at 10 µM
T1 sequence (whole entry): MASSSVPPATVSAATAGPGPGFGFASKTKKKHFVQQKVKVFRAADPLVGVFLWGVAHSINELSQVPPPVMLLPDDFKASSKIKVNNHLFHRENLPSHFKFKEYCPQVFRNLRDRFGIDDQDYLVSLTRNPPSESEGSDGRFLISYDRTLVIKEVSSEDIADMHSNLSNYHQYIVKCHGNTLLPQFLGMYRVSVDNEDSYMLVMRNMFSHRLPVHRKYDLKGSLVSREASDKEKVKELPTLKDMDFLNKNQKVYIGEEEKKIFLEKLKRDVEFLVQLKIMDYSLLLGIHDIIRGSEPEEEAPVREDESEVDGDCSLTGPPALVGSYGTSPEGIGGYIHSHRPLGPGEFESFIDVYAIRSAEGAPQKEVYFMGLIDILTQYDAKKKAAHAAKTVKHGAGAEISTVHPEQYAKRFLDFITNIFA

[5] = target: ALK tyrosine kinase receptor (Homo sapiens, UniProt Q9UM73); experiment: Selectivity interaction (KinomeScan (DiscoverX)) EUB0001619a ALK; settings: at 1 µM
[6] = target: Calcium/calmodulin-dependent protein kinase kinase 2 (Homo sapiens) (UniProt Q96RR4); experiment: Selectivity interaction (ActivX KiNativ screen (ex vivo kinase selectivity in human PBMCs)) EUB0001619a CAMKK2; type: cell-based; settings: PBMC, at 1 µM
Chain of Calcium/calmodulin-dependent protein kinase kinase 2 (Homo sapiens) (Q96RR4 2-588 limits assumed): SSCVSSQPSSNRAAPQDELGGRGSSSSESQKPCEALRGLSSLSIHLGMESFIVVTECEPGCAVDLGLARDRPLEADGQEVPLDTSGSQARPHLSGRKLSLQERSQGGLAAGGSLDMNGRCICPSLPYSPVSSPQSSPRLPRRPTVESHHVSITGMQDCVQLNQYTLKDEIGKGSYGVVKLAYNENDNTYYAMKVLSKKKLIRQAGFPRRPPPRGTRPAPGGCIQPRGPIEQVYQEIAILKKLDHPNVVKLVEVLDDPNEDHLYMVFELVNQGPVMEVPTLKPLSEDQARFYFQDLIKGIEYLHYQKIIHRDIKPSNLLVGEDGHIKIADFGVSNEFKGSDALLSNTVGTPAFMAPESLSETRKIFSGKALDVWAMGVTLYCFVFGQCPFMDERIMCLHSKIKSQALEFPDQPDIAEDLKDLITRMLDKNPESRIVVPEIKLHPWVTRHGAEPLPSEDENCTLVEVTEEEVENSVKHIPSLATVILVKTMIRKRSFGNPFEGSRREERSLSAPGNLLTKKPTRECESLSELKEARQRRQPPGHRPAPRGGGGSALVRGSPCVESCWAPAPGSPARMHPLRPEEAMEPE

[7] = target: Dual specificity protein kinase CLK3 (Homo sapiens, UniProt P49761); experiment: Selectivity interaction (KinomeScan (DiscoverX)) EUB0001619a CLK3; settings: at 1 µM
[8] = target: T2, Serine/threonine-protein kinase 3 (Homo sapiens) (UniProt Q13188); experiment: Selectivity interaction (ActivX KiNativ screen (ex vivo kinase selectivity in human PBMCs)) EUB0001619a STK3; type: cell-based; settings: PBMC, at 1 µM
T2 sequence (whole entry): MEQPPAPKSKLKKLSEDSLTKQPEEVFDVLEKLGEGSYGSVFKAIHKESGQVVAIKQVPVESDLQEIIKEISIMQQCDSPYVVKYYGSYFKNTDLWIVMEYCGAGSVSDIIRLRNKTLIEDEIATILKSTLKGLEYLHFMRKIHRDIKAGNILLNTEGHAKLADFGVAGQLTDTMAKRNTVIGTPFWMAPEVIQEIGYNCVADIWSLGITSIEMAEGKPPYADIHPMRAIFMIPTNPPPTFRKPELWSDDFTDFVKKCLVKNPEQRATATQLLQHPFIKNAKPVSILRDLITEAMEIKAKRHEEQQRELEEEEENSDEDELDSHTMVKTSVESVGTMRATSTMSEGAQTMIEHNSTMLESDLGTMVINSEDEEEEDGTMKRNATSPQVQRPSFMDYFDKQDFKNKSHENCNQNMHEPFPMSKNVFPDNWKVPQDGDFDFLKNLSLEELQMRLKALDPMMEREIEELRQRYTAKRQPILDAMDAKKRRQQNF

[9] = target: Ribosomal protein S6 kinase alpha-3 (Homo sapiens, UniProt P51812); experiment: Selectivity interaction (ActivX KiNativ screen (ex vivo kinase selectivity in human PBMCs)) EUB0001619a RPS6KA3; type: cell-based; settings: PBMC, at 1 µM
[10] = target: Receptor-type tyrosine-protein kinase FLT3 (Homo sapiens) (UniProt P36888); experiment: Selectivity interaction (SelectScreen Kinase Profiling (Thermo Fisher Scientific)) EUB0001558a FLT3; settings: at 1 µM
[11] = target: Ephrin type-A receptor 7 (Homo sapiens) (UniProt Q15375); experiment: Selectivity interaction (KinomeScan (DiscoverX)) EUB0000045b EPHA7
Chain of Ephrin type-A receptor 7 (Homo sapiens) (Q15375 28-998 limits assumed): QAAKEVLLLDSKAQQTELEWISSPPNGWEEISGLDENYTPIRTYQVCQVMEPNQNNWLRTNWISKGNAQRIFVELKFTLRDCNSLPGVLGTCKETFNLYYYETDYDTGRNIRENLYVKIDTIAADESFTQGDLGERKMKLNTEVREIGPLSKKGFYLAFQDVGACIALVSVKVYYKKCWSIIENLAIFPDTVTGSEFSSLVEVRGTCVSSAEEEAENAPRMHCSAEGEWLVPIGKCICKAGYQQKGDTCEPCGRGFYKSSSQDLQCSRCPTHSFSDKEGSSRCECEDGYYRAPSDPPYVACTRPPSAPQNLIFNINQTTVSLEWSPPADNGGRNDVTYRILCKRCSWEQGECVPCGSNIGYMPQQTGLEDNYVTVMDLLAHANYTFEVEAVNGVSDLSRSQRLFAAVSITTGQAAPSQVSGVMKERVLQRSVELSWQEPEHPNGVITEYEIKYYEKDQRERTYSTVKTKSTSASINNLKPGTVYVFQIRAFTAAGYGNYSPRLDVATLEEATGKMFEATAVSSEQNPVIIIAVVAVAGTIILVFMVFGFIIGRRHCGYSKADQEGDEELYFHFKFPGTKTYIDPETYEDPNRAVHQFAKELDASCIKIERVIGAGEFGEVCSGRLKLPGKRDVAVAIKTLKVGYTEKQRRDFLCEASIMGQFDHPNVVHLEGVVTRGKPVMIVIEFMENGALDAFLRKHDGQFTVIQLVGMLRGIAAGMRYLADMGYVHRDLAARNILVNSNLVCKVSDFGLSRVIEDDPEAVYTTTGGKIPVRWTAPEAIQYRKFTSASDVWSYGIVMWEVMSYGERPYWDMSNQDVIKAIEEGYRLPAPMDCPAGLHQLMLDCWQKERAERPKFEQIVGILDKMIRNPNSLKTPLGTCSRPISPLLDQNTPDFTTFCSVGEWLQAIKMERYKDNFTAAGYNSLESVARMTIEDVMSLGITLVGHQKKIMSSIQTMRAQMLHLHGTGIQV

[12] = target: Serine/threonine-protein kinase 10 (Homo sapiens) (UniProt O94804); experiment: Selectivity interaction (KinomeScan (DiscoverX)) EUB0000045b STK10
Chain of Serine/threonine-protein kinase 10 (Homo sapiens) (O94804 whole entry, looked up): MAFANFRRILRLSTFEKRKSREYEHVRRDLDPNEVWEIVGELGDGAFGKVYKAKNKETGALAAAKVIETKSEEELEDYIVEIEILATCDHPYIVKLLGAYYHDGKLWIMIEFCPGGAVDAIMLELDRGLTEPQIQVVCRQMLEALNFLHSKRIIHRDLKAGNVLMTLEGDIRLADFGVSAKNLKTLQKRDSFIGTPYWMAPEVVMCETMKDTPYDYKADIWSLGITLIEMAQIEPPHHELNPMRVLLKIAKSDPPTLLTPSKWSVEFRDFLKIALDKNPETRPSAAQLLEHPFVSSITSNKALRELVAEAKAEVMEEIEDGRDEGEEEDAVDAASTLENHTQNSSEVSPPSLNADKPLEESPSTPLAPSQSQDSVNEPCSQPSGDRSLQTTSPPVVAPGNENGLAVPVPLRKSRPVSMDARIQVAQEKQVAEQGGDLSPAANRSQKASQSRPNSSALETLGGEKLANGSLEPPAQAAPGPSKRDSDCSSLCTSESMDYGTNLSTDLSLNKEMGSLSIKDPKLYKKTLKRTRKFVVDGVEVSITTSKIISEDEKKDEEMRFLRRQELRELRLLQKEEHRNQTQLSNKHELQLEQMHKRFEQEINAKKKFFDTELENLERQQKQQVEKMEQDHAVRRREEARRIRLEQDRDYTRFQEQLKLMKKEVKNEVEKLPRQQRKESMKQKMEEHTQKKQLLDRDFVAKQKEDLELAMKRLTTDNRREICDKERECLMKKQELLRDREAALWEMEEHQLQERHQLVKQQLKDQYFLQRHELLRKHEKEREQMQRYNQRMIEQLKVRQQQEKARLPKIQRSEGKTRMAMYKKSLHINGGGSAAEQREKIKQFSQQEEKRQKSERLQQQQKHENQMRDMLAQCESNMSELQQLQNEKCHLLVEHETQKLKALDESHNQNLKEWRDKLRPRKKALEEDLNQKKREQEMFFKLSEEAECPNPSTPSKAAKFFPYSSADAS

[13] = target: Serine/threonine-protein kinase MARK1 (Homo sapiens) (UniProt Q9P0L2); experiment: Selectivity interaction (Kinase panel (KiNativ target engagement assay in Jurkat cells)) EUB0001635a MARK1; type: cell-based; settings: at 1 µM
[14] = target: T3, Mitogen-activated protein kinase kinase kinase 3 (Homo sapiens) (UniProt Q99759); experiment: Selectivity interaction (Kinase panel (Invitrogen)) EUB0000639a MAP3K3; settings: at 200 nM
T3 sequence (whole entry): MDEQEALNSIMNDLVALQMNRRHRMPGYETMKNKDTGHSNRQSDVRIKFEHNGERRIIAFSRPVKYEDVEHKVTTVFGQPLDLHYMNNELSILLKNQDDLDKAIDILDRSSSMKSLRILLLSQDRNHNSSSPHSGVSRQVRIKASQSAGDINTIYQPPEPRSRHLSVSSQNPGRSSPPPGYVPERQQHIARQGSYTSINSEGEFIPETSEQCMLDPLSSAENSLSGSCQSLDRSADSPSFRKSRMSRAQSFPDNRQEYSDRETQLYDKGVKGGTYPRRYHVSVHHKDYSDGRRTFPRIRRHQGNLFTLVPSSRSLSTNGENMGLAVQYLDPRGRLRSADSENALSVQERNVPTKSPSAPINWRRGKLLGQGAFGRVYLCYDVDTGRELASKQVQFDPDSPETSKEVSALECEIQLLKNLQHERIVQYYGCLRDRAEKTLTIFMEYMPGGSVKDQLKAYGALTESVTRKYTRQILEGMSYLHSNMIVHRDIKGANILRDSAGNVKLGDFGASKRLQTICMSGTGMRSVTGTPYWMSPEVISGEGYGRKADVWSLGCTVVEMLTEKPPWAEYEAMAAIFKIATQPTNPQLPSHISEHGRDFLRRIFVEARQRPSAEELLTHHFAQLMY

[15] = target: Histone-lysine N-methyltransferase NSD3 (Homo sapiens, UniProt Q9BZ95); experiment: Selectivity interaction (Binding affinity assay (SPR measurement)) EUB0000270b NSD3
[16] = target: Serine/threonine-protein kinase pim-1 (Homo sapiens, UniProt P11309); experiment: Selectivity interaction (KinomeScan (DiscoverX)) EUB0000229b PIM1; settings: at 10 µM
Chain of Serine/threonine-protein kinase pim-1 (P11309 whole entry, looked up): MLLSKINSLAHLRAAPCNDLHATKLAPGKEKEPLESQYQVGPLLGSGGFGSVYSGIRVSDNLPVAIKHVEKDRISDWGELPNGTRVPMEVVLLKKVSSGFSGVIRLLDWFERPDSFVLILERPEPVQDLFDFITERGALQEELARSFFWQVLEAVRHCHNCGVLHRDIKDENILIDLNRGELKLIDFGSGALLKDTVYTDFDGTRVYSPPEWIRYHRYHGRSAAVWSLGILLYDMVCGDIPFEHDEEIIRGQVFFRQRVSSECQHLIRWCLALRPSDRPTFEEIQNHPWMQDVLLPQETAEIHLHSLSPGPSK

Chain of Voltage-dependent L-type calcium channel subunit alpha-1C (Q13936 whole entry): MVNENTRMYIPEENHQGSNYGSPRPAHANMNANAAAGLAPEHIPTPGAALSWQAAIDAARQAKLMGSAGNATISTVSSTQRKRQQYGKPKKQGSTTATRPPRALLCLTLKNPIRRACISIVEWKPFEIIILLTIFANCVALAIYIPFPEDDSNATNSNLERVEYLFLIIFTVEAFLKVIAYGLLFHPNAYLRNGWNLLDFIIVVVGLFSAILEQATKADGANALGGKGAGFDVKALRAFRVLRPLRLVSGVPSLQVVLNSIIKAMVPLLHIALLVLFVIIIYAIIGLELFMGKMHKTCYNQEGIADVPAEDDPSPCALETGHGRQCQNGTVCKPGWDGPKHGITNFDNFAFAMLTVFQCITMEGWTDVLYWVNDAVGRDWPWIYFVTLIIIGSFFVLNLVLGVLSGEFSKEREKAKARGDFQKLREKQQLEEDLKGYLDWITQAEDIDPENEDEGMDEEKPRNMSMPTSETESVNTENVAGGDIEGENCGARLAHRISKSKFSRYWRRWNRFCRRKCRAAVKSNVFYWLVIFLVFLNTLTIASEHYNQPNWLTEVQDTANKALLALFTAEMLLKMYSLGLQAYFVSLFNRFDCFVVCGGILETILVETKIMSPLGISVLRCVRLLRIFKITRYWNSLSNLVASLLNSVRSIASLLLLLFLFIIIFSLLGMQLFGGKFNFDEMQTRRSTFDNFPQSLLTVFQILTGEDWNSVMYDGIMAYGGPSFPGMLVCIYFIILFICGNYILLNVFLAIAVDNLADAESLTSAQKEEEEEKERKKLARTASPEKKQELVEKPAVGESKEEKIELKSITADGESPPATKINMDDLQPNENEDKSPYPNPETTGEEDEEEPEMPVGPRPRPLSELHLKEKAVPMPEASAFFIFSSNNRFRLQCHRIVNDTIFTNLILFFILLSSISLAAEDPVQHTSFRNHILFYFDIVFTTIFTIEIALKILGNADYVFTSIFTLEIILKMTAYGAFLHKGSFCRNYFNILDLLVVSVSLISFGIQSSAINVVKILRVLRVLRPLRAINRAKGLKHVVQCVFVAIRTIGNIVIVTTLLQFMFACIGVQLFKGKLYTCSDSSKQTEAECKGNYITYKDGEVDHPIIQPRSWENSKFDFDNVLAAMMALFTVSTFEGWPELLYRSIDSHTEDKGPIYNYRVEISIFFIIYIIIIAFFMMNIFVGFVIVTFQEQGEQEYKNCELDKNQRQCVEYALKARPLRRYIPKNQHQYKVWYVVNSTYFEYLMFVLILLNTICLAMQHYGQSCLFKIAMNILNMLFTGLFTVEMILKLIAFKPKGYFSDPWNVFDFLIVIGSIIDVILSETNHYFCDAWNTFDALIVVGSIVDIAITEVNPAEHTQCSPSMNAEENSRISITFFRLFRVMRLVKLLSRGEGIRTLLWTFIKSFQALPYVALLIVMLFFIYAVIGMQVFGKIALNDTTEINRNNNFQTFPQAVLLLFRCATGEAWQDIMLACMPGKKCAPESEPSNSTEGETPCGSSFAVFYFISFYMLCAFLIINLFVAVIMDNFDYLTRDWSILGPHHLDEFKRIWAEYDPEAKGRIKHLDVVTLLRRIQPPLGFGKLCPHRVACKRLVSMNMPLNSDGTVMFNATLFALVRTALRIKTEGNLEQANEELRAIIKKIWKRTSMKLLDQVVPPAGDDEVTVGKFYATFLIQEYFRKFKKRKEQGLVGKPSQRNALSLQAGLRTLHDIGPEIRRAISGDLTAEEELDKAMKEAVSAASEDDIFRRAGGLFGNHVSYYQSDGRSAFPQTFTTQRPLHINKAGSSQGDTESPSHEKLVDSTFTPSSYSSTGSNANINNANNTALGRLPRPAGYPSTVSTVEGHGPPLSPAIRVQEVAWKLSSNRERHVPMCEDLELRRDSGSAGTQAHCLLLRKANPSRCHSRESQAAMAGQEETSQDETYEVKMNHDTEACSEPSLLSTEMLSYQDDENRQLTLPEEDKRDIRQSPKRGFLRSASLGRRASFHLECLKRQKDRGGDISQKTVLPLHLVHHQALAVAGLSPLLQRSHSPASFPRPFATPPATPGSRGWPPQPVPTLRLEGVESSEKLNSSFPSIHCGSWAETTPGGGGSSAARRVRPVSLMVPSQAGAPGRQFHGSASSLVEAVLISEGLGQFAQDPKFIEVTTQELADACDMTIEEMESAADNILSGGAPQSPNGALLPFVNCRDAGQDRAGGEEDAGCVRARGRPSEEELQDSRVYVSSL

With `Cc1cc(C)cc([C@@H]2c3cc(C)ccc3NC(=O)CN2C(=O)c2ccc(Br)s2)c1` the “% of inhibition” value [1] was -8%.

For `CCN(CC)CCCCNc1ncc2cc(-c3cc(OC)cc(OC)c3)c(NC(=O)NC(C)(C)C)nc2n1`, the % of control [2] was 100%.

`CC(=O)c1cc(-c2ccccc2OCC2CC2)c2ncccn12` was tested, and the % of control [3] was 81%.

`CNC(=O)Nc1ccc(-c2nc(N3CC4CCC(C3)O4)c3cnn(C4CCC5(CC4)OCCO5)c3n2)cc1` showed a % of control [4] of 100%.

`N#Cc1cccc(-c2c[nH]c3ncnc(N4CCOCC4)c23)c1` was tested, and the % of control [5] was 100%, the % of inhibition [6] was 49% and the % of control [7] was 78%. For the same compound, the % of inhibition [8] was 83% and the % of inhibition [9] was -11%.

Compound `CC(C)(O)[C@H](F)CN1Cc2cc(NC(=O)c3cnn4cccnc34)c(N3CCOCC3)cc2C1=O` has a % of inhibition [10] of 90.8%.

Compound `C=CC(=O)Nc1cc(-n2c(=O)ccc3cnc4ccc(-c5ccc(NS(C)(=O)=O)cc5)cc4c32)ccc1C` has a % of control ([11]; at 1 µM) of 100%, a % of control ([11]; at 10 µM) of 85% and a % of control ([12]; at 1 µM) of 87%. It also gave a % of control ([12]; at 10 µM) of 100%.

Compound `C=CC(=O)Nc1ccc(C(=O)Nc2[nH]nc3c2CN(C(=O)N[C@H](CN(C)C)c2ccccc2)C3(C)C)cc1` has a % of engagement [13] of 8.7%.

In the case of `CC[C@@H]1[C@H](F)C(=O)N[C@@H]1COc1nccc2cc(C(N)=O)c(OC)cc12` [ZIMLOVISERTIB], the % of inhibition [14] is reported as -5.54%.

`Cc1cc(CN)cc(C)c1-c1ncn(C)c1-c1cncn1C` was tested, and the Kd [15] was 144 µM.

In the case of `COc1cc(N(C)c2ccnc3ccc(C(F)(F)F)cc23)cc(OC)c1OC`, the % binding [16] is reported as 69%.

Source: ChEMBL document CHEMBL5465560, “Selectivity Literature for EUbOPEN Chemogenomic Library” (2024)
